Data reported in US6355784B1, “Methods and compositions for the manufacture of halogenated anthracyclines with increased antitumor activity, other anthracyclines, halogenated sugars, and glycosyl donors” (priority 1998, dated 2002).
Values after ≈ are worked out from the molar mass of the structure shown.

Key:
KBVI (MDR) cells = assay: MTT cytotoxicity assay, multi-drug-resistant KBV1 cells; settings: for ID50 KBVI (MDR): multi-drug-resistant KBV1 cells overexpressing MDR1 (P-gp), MTT, 72 hours; for RI (resistance index) KBVI vs KB: ratio of ID50 in KB and KBVI cells
MCF-7/VP-16 (MRP) cells = settings: for ID50 MCF-7/VP-16 (MRP): MRP-overexpressing MCF-7/VP-16 cells, MTT, 72 hours; for RI (resistance index) MCF-7/VP-16 vs MCF-7: ratio of ID50 in MCF-7 and MCF-7/VP-16 cells
MCF-7/DOX (MDR) cells = assay: MTT cytotoxicity assay, MDR MCF-7/DOX cells; settings: for ID50 MCF-7/DOX (MDR): MDR-overexpressing MCF-7/DOX cells, MTT, 72 hours; for RI (resistance index) MCF-7/DOX vs MCF-7: ratio of ID50 in MCF-7 and MCF-7/DOX cells
MCF-7 cells = assay: MTT cytotoxicity assay, wild-type MCF-7 cells; settings: for ID50 MCF-7: sensitive human breast carcinoma MCF-7 cells, MTT, 72 hours; for cytotoxicity in sensitive MCF-7 cells, in words: compared with DOX
KB cells = assay: MTT cytotoxicity assay, sensitive KB cells; settings: sensitive human carcinoma KB cells, 72 hours
amyloidosis = settings: as a result of amyloid resorption; cited from earlier work
prion disease = settings: cited from earlier work
amyloid fibrils = settings: cited from earlier work
amyloid enhancing factor = settings: preincubation of the amyloid enhancing factor with IDOX; cited from earlier work

Compound | ID50 KBVI (MDR) (KBVI (MDR) cells) [µg/mL] | ID50 MCF-7/VP-16 (MRP) (MCF-7/VP-16 (MRP) cells) [µg/mL] | RI (resistance index) MCF-7/VP-16 vs MCF-7 (MCF-7/VP-16 (MRP) cells) | ID50 MCF-7/DOX (MDR) (MCF-7/DOX (MDR) cells) [µg/mL] | ID50 MCF-7 (MCF-7 cells) [µg/mL] | ID50 KB (KB cells) [µg/mL] | further results
COc1cccc2c1C(=O)c1c(O)c3c(c(O)c1C2=O)CC(O)(C(=O)CO)CC3OC1CC(O)C(F)(F)C(C)O1 (centres unmarked) [WP 600, 3′-deamino-4′-deoxy-4′,4′-difluoro-3′-hydroxy-doxorubicin] | 16.9 ± 2.3 (≈ 29.9 µM) |  |  |  |  |  | 
6′-fluoro-doxorubicin [WP 743] | 41 | 2.3 | 11.5 | >10 | 0.2 | 0.64 | RI (resistance index) MCF-7/DOX vs MCF-7 (MCF-7/DOX (MDR) cells): 50; RI (resistance index) KBVI vs KB (KBVI (MDR) cells): 64
COc1cccc2c1C(=O)c1c(O)c3c(c(O)c1C2=O)C[C@@](O)(C(=O)CO)C[C@@H]3O[C@H]1C[C@H](N)[C@H](O)[C@H](C)O1 [DOX, doxorubicin, reference compound] | >100 | 6.2 (≈ 11.4 µM) | 16.3 | >100 | 0.38 (≈ 0.699 µM) | 4.1 ± 0.3 (≈ 7.54 µM) | RI fold higher than that of WP 715 and WP 722 (MCF-7/DOX (MDR) cells; MCF-7/DOX cells): 180 fold; RI (resistance index) MCF-7/DOX vs MCF-7 (MCF-7/DOX (MDR) cells): >263; cytotoxicity against MDR KB-V1 cells, in words (KBVI (MDR) cells): inactive
COc1cccc2c1C(=O)c1c(O)c3c(c(O)c1C2=O)CC(O)(C(=O)CO)CC3OC1CC(N)C(I)C(C)O1 (centres unmarked) [IDOX, 4′-iodo-4′-deoxydoxorubicin] |  |  |  |  |  |  | clinical outcome in patients with amyloidosis (amyloidosis): substantial clinical improvement; onset of disease (prion disease; Syrian-hamster prion model): delayed onset of the disease; survival time (prion disease; Syrian-hamster prion model): prolonged; accumulation of amyloid fibrils in brain (prion disease; neuropathological examination, versus untreated controls): delay in the accumulation of amyloid fibrils; binding to amyloid fibrils (amyloid fibrils): binds strongly; formation of amyloid deposits (amyloid enhancing factor): significantly reduces formation of amyloid deposits
COc1cccc2c1C(=O)c1c(O)c3c(c(O)c1C2=O)CC(O)(C(=O)CO)CC3OC1CC(O)C(F)C(C)O1 (centres unmarked) [WP 563, 3′-Deamino-4′-fluoro-3′-hydroxydoxorubicin] | 2.74 ± 2.9 (≈ 5.01 µM) |  |  |  |  |  | 
COc1cccc2c1C(=O)c1c(O)c3c(c(O)c1C2=O)CC(O)(C(=O)CO)CC3OC1CC(N)C(F)C(C)O1 (centres unmarked) [WP 722, 4′-deoxy-4′-fluoro-doxorubicin] | 3.3 ± 0.4 (≈ 6.05 µM) | 4.2 ± 5.0 (≈ 7.7 µM) | 3.23 | 1.9 (≈ 3.48 µM) | 1.3 ± 1.6 (≈ 2.38 µM) | 2.1 ± 2.5 (≈ 3.85 µM) | cytotoxicity in MCF-7/VP-16 cells, in words (MCF-7/VP-16 (MRP) cells; compared with DOX): significant increase in cytotoxicity; cytotoxicity against resistant MCF-7/DOX cells, in words (MCF-7/DOX (MDR) cells): highly cytotoxic against resistant cells; cytotoxicity in sensitive MCF-7 cells, in words (MCF-7 cells): less potent than DOX; RI (resistance index) KBVI vs KB (KBVI (MDR) cells): 1.57
COc1cccc2c1C(=O)c1c(O)c3c(c(O)c1C2=O)CC(O)(C(C)=O)CC3OC1CC(N)C(F)C(C)O1.Cl (centres unmarked) [WP 715, 4′-deoxy-4′-fluoro-daunorubicin hydrochloride] | 4.1 ± 0.6 |  |  | 2.2 | 1.5 ± 1.4 | 3.15 ± 0.9 | cytotoxicity against resistant MCF-7/DOX cells, in words (MCF-7/DOX (MDR) cells): highly cytotoxic against resistant cells; cytotoxicity in sensitive MCF-7 cells, in words (MCF-7 cells): less potent than DOX
